The record followed here is ChEMBL document CHEMBL3351502, “Flavones: an important scaffold for medicinal chemistry” (Eur J Med Chem, 2014).

For one series, the target named is T1, Adenosine receptor A3 (Homo sapiens, UniProt P0DMS8).
T1 sequence (P0DMS8 whole entry): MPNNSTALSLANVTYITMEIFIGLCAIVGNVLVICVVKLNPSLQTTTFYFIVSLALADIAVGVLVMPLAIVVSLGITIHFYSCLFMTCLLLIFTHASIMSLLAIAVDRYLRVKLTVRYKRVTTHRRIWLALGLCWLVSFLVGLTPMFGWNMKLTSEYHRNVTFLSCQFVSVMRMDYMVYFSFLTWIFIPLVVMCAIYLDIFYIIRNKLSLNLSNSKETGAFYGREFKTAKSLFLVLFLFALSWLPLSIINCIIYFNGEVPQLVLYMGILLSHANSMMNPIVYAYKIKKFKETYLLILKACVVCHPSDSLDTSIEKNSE
The experiment in a line: Binding affinity to human adenosine A3 receptor.

The test system of the next series is Plasmodium falciparum. The experiment in a line: Antimicrobial activity against Plasmodium falciparum. Type of series: functional, organism-based.
Series [1] deals with T2, Cystic fibrosis transmembrane conductance regulator (Homo sapiens, UniProt P13569). The experiment in a line: Inhibition of forskolin-stimulated CFTR (unknown origin).
The target of series [2] is Xanthine dehydrogenase/oxidase (Homo sapiens, UniProt P47989). The experiment in a line: Inhibition of xanthine oxidase (unknown origin).
The target of series [3] is T2, Cystic fibrosis transmembrane conductance regulator. The experiment in a line: Stimulation of CFTR (unknown origin).
In another series the test system is LNCaP. The experiment in a line: Downregulation of prostate specific antigen secretion in human LNCAP cells. Type of series: functional, cell-based.
The nature of series [4]: Inhibition of advanced glycation end product formation. Type of series: physicochemical.
For a further series, the species on record is Homo sapiens. The experiment in a line: Inhibition of alpha glucosidase (unknown origin) at 0.5 mg/ml.
For another series, the system named is Leishmania. The experiment in a line: Leishmanicidal activity against Leishmania. Type of series: functional, organism-based.
A further series concerns the target Acetylcholinesterase (Homo sapiens, UniProt P22303). The experiment in a line: Inhibition of AChE (unknown origin).
The species entered for another series is Rattus norvegicus. The experiment in a line: Antiulcer activity in rat assessed as protection from indomethacin-induced gastric damage. The following applies: Stomach. Type of series: functional.
The target in series [5] is T3, Succinate-semialdehyde dehydrogenase, mitochondrial (Homo sapiens, UniProt P51649).
T3 sequence (P51649 whole entry): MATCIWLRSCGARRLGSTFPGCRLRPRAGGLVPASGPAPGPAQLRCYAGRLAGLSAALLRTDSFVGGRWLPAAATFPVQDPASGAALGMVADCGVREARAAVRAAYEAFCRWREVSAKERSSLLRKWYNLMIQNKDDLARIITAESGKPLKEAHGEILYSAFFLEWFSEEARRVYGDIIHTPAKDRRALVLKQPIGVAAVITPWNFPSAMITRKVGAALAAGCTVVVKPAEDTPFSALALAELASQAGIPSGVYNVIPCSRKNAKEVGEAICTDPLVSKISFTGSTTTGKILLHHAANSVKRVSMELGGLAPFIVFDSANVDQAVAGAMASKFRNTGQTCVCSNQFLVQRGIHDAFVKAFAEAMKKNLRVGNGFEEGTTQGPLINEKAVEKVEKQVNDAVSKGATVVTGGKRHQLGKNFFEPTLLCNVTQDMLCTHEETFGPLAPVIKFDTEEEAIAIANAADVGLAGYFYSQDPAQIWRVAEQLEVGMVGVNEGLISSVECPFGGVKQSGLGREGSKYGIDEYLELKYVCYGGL
The experiment in a line: Inhibition of SSADH (unknown origin).

The target of series [6] is Benzodiazepine receptors; peripheral & central. The experiment in a line: Binding affinity to benzodiazepine receptor (unknown origin). Type of series: protein assay, Homo sapiens.
In the next series the test system is Staphylococcus aureus. The experiment in a line: Antimicrobial activity against Staphylococcus aureus. Type of series: functional.
Series [7] in a line: Competitive inhibition of muscarinic receptor (unknown origin). The arrangement: species or system Homo sapiens.
Series [8] concerns the target T4, Human immunodeficiency virus type 1 integrase (Human immunodeficiency virus 1, UniProt Q7ZJM1). The experiment in a line: Inhibition of HIV-1 integrase terminal cleavage activity.
In series [9] the target is T4, Human immunodeficiency virus type 1 integrase. The experiment in a line: Inhibition of HIV-1 integrase strand transfer activity.
Series [10] addresses Telomerase reverse transcriptase (Homo sapiens, UniProt O14746). The experiment in a line: Inhibition of telomerase activity (unknown origin).
Series [11] has as its target 4-aminobutyrate aminotransferase, mitochondrial (Homo sapiens, UniProt P80404). The experiment in a line: Inhibition of GABA transaminase (unknown origin).
The nature of series [12]: Inhibition of alpha glucosidase (unknown origin). Also on record: species or system Homo sapiens.

Each structure is given as a SMILES string. In brackets after ≈: the same amount, converted by molar mass.

Acetylcholinesterase, sequence (P22303 whole entry): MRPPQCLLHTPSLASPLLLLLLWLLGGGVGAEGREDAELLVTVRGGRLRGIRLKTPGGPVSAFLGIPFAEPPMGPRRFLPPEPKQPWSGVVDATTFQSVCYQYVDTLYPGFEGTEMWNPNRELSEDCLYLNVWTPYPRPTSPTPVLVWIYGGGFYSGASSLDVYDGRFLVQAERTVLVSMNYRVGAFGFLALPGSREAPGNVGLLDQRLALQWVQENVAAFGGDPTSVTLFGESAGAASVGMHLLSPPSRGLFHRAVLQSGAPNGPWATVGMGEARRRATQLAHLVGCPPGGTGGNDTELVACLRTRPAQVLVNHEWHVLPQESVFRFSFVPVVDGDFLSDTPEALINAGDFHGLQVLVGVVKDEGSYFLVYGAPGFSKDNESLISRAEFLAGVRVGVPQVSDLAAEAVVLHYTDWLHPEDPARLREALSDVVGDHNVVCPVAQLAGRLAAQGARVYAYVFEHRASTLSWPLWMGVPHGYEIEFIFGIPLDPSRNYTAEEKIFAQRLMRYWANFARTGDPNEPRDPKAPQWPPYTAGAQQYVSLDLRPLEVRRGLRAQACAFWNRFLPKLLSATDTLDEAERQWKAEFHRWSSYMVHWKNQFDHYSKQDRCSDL
T4 sequence (Q7ZJM1 whole entry): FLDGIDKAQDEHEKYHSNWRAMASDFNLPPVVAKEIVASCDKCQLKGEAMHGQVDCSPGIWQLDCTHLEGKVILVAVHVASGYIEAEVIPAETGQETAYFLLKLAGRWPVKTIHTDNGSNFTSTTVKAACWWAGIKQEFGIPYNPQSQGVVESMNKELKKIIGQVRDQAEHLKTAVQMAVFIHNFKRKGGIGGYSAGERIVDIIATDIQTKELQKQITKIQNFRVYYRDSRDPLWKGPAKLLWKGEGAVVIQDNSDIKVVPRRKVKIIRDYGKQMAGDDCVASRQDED
T2 sequence (P13569 whole entry): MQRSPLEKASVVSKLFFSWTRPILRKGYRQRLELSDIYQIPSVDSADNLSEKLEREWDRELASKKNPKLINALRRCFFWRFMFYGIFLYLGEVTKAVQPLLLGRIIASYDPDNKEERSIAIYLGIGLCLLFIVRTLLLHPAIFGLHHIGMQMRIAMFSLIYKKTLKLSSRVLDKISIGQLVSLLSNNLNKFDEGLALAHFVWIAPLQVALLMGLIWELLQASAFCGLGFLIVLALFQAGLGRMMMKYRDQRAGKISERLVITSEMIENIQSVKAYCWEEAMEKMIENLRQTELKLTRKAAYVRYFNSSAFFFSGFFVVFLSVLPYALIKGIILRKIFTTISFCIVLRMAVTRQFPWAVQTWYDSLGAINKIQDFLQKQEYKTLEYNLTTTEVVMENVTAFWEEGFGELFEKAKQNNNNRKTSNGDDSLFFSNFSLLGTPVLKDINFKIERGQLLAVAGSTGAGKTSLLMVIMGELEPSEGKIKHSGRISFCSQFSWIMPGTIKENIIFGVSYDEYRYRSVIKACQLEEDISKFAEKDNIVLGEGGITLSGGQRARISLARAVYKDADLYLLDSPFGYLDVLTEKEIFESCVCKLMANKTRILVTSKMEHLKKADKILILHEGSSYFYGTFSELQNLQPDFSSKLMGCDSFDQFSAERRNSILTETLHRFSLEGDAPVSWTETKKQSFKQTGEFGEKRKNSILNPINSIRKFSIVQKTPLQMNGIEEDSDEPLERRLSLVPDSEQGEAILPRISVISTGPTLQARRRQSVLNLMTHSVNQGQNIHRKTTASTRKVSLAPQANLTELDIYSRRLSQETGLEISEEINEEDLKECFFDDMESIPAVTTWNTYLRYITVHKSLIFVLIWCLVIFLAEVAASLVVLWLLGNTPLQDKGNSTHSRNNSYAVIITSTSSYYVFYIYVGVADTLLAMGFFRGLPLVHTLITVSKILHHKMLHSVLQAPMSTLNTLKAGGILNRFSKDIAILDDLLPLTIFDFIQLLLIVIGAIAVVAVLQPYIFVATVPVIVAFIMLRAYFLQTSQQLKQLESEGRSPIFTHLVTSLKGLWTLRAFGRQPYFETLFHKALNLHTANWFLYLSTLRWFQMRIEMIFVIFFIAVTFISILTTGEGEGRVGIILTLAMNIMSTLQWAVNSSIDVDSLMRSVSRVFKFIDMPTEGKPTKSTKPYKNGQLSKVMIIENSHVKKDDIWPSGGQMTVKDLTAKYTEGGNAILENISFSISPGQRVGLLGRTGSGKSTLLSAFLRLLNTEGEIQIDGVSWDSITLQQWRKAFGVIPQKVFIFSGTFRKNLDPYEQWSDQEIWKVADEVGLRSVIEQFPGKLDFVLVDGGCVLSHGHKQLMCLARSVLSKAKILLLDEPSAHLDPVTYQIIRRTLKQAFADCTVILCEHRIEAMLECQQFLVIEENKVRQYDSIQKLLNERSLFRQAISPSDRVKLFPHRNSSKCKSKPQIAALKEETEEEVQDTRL
Xanthine dehydrogenase/oxidase, sequence (P47989 whole entry): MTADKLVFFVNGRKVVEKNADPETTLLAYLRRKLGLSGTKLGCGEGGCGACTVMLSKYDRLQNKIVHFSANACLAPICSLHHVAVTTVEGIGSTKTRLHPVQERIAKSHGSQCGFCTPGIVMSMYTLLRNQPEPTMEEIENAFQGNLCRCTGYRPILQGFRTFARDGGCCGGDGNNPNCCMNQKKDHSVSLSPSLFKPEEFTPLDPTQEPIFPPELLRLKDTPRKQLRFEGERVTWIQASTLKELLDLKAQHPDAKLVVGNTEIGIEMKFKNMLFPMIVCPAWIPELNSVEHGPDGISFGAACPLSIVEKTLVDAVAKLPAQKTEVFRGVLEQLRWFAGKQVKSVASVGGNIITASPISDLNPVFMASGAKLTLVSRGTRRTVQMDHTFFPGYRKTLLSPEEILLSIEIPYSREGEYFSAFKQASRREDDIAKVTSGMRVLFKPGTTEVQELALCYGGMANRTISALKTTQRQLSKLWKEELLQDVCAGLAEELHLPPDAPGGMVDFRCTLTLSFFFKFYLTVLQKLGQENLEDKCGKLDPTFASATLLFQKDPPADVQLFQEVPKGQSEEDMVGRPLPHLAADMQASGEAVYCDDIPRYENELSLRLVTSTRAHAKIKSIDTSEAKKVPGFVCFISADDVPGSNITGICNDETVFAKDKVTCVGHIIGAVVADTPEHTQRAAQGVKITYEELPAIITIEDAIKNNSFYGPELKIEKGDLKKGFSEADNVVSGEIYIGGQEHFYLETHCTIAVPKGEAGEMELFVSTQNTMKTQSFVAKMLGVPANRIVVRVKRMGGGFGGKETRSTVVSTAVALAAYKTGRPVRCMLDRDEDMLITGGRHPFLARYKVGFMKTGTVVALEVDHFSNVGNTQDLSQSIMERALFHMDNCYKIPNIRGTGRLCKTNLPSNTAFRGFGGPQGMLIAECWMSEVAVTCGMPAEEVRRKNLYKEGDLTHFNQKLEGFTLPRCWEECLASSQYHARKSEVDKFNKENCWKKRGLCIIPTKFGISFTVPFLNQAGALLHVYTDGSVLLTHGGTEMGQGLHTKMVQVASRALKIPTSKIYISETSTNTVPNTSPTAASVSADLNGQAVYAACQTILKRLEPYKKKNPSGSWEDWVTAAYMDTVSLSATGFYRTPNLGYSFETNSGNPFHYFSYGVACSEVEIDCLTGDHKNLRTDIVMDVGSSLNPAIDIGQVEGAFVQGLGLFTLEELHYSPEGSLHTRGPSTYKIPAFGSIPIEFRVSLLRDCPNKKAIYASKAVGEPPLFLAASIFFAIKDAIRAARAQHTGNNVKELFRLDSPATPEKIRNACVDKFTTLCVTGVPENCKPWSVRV
Telomerase reverse transcriptase, sequence (O14746 whole entry): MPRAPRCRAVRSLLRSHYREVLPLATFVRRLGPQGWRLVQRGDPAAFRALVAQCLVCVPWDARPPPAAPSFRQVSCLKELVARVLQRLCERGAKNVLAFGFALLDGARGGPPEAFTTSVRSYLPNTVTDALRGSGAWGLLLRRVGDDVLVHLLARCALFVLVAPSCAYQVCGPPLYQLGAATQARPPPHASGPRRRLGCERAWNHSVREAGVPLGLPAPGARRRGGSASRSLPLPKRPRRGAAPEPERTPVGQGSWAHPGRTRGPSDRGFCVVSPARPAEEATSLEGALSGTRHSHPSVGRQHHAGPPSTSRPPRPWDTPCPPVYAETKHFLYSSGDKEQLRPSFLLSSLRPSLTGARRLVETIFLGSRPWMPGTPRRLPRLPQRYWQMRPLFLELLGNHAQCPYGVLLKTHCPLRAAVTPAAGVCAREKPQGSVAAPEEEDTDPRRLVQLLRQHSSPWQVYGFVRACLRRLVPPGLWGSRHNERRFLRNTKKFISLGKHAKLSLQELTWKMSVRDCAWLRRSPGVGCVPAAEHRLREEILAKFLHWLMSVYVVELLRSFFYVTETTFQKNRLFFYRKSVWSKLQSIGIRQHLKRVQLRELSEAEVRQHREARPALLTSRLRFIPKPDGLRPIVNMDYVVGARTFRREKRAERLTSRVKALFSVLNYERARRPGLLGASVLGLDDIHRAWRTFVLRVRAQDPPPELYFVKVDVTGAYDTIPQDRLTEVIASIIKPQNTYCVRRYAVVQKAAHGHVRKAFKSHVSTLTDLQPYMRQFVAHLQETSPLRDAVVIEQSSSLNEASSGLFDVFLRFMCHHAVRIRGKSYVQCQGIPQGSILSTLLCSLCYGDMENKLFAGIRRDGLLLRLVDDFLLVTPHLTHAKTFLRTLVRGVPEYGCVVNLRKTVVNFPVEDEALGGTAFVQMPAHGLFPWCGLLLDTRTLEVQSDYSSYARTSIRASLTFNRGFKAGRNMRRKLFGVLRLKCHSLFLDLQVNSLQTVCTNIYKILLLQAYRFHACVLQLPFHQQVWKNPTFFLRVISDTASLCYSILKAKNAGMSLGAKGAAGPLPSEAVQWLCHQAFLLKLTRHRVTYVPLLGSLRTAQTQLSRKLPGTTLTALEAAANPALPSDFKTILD

`Cc1ccc(-c2oc3ccc(Cl)cc3c(=O)c2O)c(OC(C)C)c1`: the affinity on Adenosine receptor A3 corresponds to a Ki of 0.56 µM. For the compound `O=c1cc(-c2ccc(Oc3c(O)cc(O)c4c(=O)cc(-c5ccc(O)cc5)oc34)cc2)oc2cc(O)cc(O)c12` [LANAROFLAVONE], the IC50 (as a rule, the midpoint of a concentration-inhibition curve) with Plasmodium falciparum worked out at 0.48 µM. On to `O=c1cc(-c2ccc(O)cc2)oc2cc(O)cc(O)c12` [APIGENIN], for which the Ki (as a rule, the equilibrium dissociation constant of an inhibitor or competing ligand from its target) in series [1] was determined as 81 µM; in series [2] it was 0.52 µM. For the same compound, it took 9 µM to reach a half-maximal effect in series [3] (EC50).

Consider `O=c1cc(-c2ccc(O)c(O)c2)oc2cc(O)cc(O)c12` [LUTEOLIN], for which the IC50 with LNCaP was found to be 5 µM; in [4] it was 99 µM. The inhibition (commonly the percentage by which the read-out fell short of the control) in the series filed under Homo sapiens amounted to 36%. This compound also showed a Ki in series [2] of 2.9 µM.

`O=c1cc(-c2ccc(OCCOCCN(CCOCCOc3ccc(-c4cc(=O)c5ccccc5o4)cc3)Cc3ccncc3)cc2)oc2ccccc12` gave an IC50 in the series on Leishmania of 0.13 µM. As for `COc1cc2oc(-c3ccc(CN4CCCC4)cc3)cc(=O)c2cc1OC`, the IC50 at Acetylcholinesterase stood at 0.034 µM.

Take `COc1cccc2oc(-c3ccc(F)cc3)cc(=O)c12`: the ED50 (usually the dose that gives a 50% effect, or the effect in half of the subjects) in the series listed under Rattus norvegicus came to 5.5 mg/kg. On to `O=c1cc(-c2ccc(O)cc2)oc2cc(O)c(O)c(O)c12` [SCUTELLAREIN], for which 7200 µM corresponded to half-maximal inhibition in series [5] (IC50).

Consider `O=c1cc(-c2cccc([N+](=O)[O-])c2)oc2ccc([N+](=O)[O-])cc12`, for which, in [6], the Ki was 0.0015 µM. The same measure, in the same setting: the value for `O=c1cc(-c2cccc([N+](=O)[O-])c2)oc2ccc(Br)cc12` was 0.0015 µM. The compound `O=c1cc(-c2ccc(CN3CCCCC3)cc2)oc2ccccc12` gave an IC50 against Acetylcholinesterase of 0.055 µM. Regarding `COc1cc([C@H]2Oc3cc(-c4cc(=O)c5ccccc5o4)ccc3O[C@@H]2CO)ccc1O`, inhibition of growth in the series with Staphylococcus aureus (MIC) required 0.08 µg/mL (≈ 0.185 µM). The compound `COc1c(OC)c(OC)c2c(=O)c(OC)c(-c3ccc4c(c3)OCO4)oc2c1OC` gave a Ki in [7] of 76.5 µM. Turning to `O=c1cc(-c2ccc(O)c(O)c2)oc2cc(O[C@@H]3O[C@H](CO)[C@@H](O)[C@H](O)[C@H]3OS(=O)(=O)O)cc(O)c12`, the IC50 came to 2100 µM in [8] and 400 µM in series [9].

With `Cc1ccc2oc(-c3cc(Br)ccc3O)cc(=O)c2c1`, the Ki in series [6] turned out to be 0.0009 µM.

Take `N=C(NC1CCCCC1)c1ccc2nc(-c3ccc4oc(-c5ccccc5)cc(=O)c4c3)[nH]c2c1`: in the series on Staphylococcus aureus, the MIC (commonly the lowest concentration that inhibits growth of the organism) amounted to 1.56 µg/mL (≈ 3.37 µM). In turn, `O=c1cc(-c2ccc(OCc3ccc(Cl)nc3)cc2)oc2cc(OCc3ccc(Cl)nc3)ccc12` gave an IC50 in series [10] of 36.5 µM. In the series with Plasmodium falciparum, `O=C1c2c(O)cc(O)cc2O[C@H](c2ccc(O)cc2)[C@H]1[C@@H]1C(=O)c2c(O)cc(O)cc2O[C@H]1c1ccc(O)cc1` had an IC50 of 7.3 µM.

For `O=c1cc(-c2ccccc2)oc2cc(O)c(O)c(O)c12` [BAICALEIN], the IC50 in series [4] came out at 93 µM; in series [11], 12800 µM; in series [12] it was 52 µM.
